In patent US20040214851A1, “Compositions and methods for induction of opioid receptors” (3M Innovative Properties Company, priority 2003, published 2004):
Where two headings read alike, the source gives them in different places.

Legend:
[1] = tested on: Opioid Growth Factor Receptor (OGFr); test: Induction of OGFr mRNA in human PBMCs (GeneChip microarray); type: cell-based
Experimental: (§1) Opioid receptor inducing compounds (ORICs) were dissolved in dimethyl sulfoxide (DMSO, Sigma Chemical Company) at 5 mM concentration. PBMCs were incubated for one hour in X-VIVO 20 medium (Cambrex Bio Science, Walkersville, Md.) at 37° C. in a 5% CO2 incubator prior to incubation with ORIC prepared in DMSO or with DMSO alone (as a control). The amount of DMSO was kept below 0.1% of the total incubation volume.
(§2) PBMCs were incubated for 15, 30, 60, 120 minutes with ORIC 1. […] DMSO-treated control samples were incubated for 1 hour, 2 hours, 5 hours, 9 hours, and 16 hours.
(§3) At the end of the specified incubation time, cells were lysed and total RNA extracted using the Qiagen RNeasy MidiKit (Qiagen, Inc., Valencia, Calif.). RNA was quantified using absorbance at 260. Quality of RNA was determined from the ratio of absorbance measured at OD260 and OD280 and from the ratio of 18S and 28S bands in RNA 6000 Nano Chip gels run on the Agilent 2100 Bioanalyzer (Agilent Technologies, Inc., Palo Alto, Calif.).
RNA was reverse transcribed to cDNA using a Superscript cDNA synthesis kit (Invitrogen Corporation, Carlsbad, Calif.) using an HPLC-purified T7-(dT)24 primer (Genset SA, Paris, France). Labeled cRNA was prepared from double-stranded cDNA by in vitro transcription using an Enzo BioArray High Yield RNA Transcript Labeling Kit in the presence of biotin-11-CTP and biotin-16-UTP (Enzo Diagnostics, Inc., Farmingdale, N.Y.), and purified using an RNeasy MiniKit (Qiagen, Inc.). 10 or 15 μg of biotinylated cRNA were fragmented and hybridized to HG-U95A or U133A GeneChip® arrays (Affymetrix, Santa Clara, Calif.) containing probe sets representing 12,000 genes (HG-U95A) or 22,000 genes (U133A). Chips were hybridized, washed, and stained according to the Affymetrix protocols.
(§4) Images were scanned using the Agilent Gene Array Scanner (Agilent Technologies, Inc., Palo Alto, Calif.), and processed using Affymetrix Microarray Suite (MS 4.0 or MS 5.0) software. The total fluorescence intensity of each image was scaled to 500 to enable comparison of different images. The image at each time point was analyzed relative to the appropriate control in order to calculate changes in expression for each gene. Changes in gene expression were deemed significant if the p value for detection and change in expression were <0.05.

μ-opioid receptor = test: Induction of μ-opioid receptor mRNA in human PBMCs (GeneChip microarray); type: cell-based
Experimental: as §1, §2, §3
RNA was reverse transcribed to cDNA using a Superscript cDNA synthesis kit (Invitrogen Corporation, Carlsbad, Calif.) using an HPLC-purified T7-(dT)24 primer (Genset SA, Paris, France). Labeled cRNA was prepared from double-stranded cDNA by in vitro transcription using an Enzo BioArray High Yield RNA Transcript Labeling Kit in the presence of biotin-11-CTP and biotin-16-UTP (Enzo Diagnostics, Inc., Farmingdale, N.Y.), and purified using an RNeasy MiniKit (Qiagen, Inc.). […]
as §4, with “Changes in gene expression were deemed significant if the p value for detection and change in expression were <0.05.” left out

[2] = tested on: melanoma cell line B16-F10; test: B16-F10 melanoma lung tumor model in C57/BL6 mice; type: in vivo; conditions: B16-F10 i.v.
Experimental: C57/BL6 mice are injected on Day 0 intravenously with melanoma cell line B16-F10 (5×10^5). On day 5 and lasting through day 19, mice are injected intraperitoneally every other day with either (a) PBS (control), (b) 10 mg/kg of ORIC2, (c) 10 mg/kg [Met^5]-enkephalin, or (d) both.
On Day 20, half the mice are sacrificed and the lungs are removed and weighed. Percent inhibition of lung tumor growth is determined according to the formula:
Placebo weight−Treatment weight×100 Placebo weight

lung cancer = test: Human subjects with lung cancer, tumor size by CT scan and survival; type: in vivo
Experimental: Human subjects with lung cancer are injected intravenously with a placebo (control), ORIC5 (10 mg/kg), or both ORIC5 (10 mg/kg) and OGF (1 mg/kg) three times a week for eight weeks. Tumor size is measured by CT scan.

[3] = human PBMCs, 5 μM ORIC 1 (FIG. 1), 1 μM ORIC 2, 5 μM ORIC 3, 0.1 μM ORIC 4, (FIG. 2)
[4] = human PBMCs, 1 μM ORIC 2, 5 μM ORIC 3, 0.1 μM ORIC 4, FIG. 3

Compound	induction of OGFr (mRNA) [1]	induction of OGFr (mRNA) [1, 3]	induction of the μ-opioid receptor (mRNA) (μ-opioid receptor; [4])	also measured
CC(C)Cn1cnc2c(N)nc3ccccc3c21 [ORIC1, 1-(2-methylpropyl)-1H-imidazo[4,5-c]quinolin-4-amine]	induction	–	–	–
CCOCc1nc2c(N)nc3c(c2n1CC(C)(C)O)CCCC3 [ORIC2, 4-amino-2-(ethoxymethyl)-α,α-dimethyl-6,7,8,9-tetrahydro-1H-imidazo[4,5-c]quinoline-1-ethanol]	–	induction	induction	inhibition of tumor growth in the lung ([2]; 10 mg/kg i.p. every other day, day 5 to 19, lungs weighed Day 20, vs placebo): increased inhibition of tumor growth in the lung; survival ([2]; monitored through Day 75, vs placebo): enhanced survival
CCCCc1nc2c(N)nc3ccccc3c2n1CCCCNS(C)(=O)=O [ORIC4, N-[4-(4-amino-2-butyl-1H-imidazo[4,5-c]quinolin-1-yl)butyl]methanesulfonamide]	–	induction	induction	–
Cc1nc2c(N)nc3c(c2n1CCCCNC(=O)N1CCOCC1)CCCC3 [ORIC5, N-[4-(4-amino-2-methyl-6,7,8,9,-tetrahydro-1H-imidazo[4,5-c]quinolin-1-yl)butyl]morpholine-4-carboxamide]	induction	–	–	induction of the μ-opioid receptor (mRNA) (μ-opioid receptor): induction; tumor size by CT scan (lung cancer; i.v. three times a week for eight weeks, at eight weeks vs prior to treatment): measurably smaller; five-year survival rate (lung cancer; vs control group): greater
